Data from US12390441B2, “Immunomodulating o-het/aryl azalides” (Zoetis Services LLC, priority 2020, dated 2025).
Marks after values point to notes of the source that are not given here.

What was measured:
P. multocida = assay: In-vitro MIC model (CLSI broth micro-dilution); assay type: cell-based, Pasteurella multocida
M. haemolytica = assay: In-vitro MIC model (CLSI broth micro-dilution); assay type: cell-based, Mannheimia haemolytica
S. aureus (29213 ATCC) = assay: In-vitro MIC model (CLSI broth micro-dilution); assay type: cell-based
IL-1β = assay: Whole blood assay, LPS stimulation, MSD cytokine detection; assay type: cell-based, bovine; details: fresh whole bovine blood, LPS stimulation; drug concentration giving overstimulation (OS) of IL-1β
[1] = test system: BRD pathogens, M. haemolytica and P. multocida; assay: In-vitro MIC model, BRD pathogen screening panel; assay type: cell-based, Mannheimia haemolytica; Pasteurella multocida; details: at least one BRD strain
P. multocida 46572 = assay: In vivo mouse lung infection challenge model (murine); set-up: species or system CD-1 female mice; details: for % Survival: 46572, sc, 20 mg/kg, 240 h
Description: The challenge organism was P. multocida 46572. Target challenge concentration was 5×10^2 CFU/mouse. Isolated colonies from overnight growth (37° C. with 5% CO2) on trypticase soy agar (TSA II) blood plates were transferred to room temperature Brain Heart Infusion Broth (BHIB). The broth culture was incubated 3.5-4 hours to approximately mid-log phase of growth, as measured by forward light scatter at 600 nm (OD600, 0.200). The culture was centrifuged to collect the bacterial pellet. The pellet was re-suspended in BHIB and adjusted to provide an approximate concentration of 2.7 log^10 colony forming units (CFU) in 0.04 mL at the highest concentration. The challenge inoculum concentration was confirmed by serial dilutions of the inoculum for CFU enumeration. On Day −5, CD-1 female mice were received. Mice were given standard rodent diet and water ad libitum. On Day 0, bacterial inoculum (0.04 mL) was administered to each mouse (n=36) intranasally. Compounds of the invention were dosed at 20 mg/kg (0.1 mL) in a buffered (˜pH 5.4) propylene glycol, monothioglycerol and water solution by subcutaneous injection. Animals were observed from Days 1-10. The study was terminated on Day 10. In addition, some treatment groups were sampled at 6, 24, and 48 hours post bacterial challenge for RNA sequence analysis of lung tissue.
The murine efficacy model (P. multocida challenge) was optimized, and the treatment group size was powered to be able to observe statistically significant improvement of survival to expected ranges for immunomodulatory compounds. The experimental design was a randomized complete block design. Mice were individually identified and treatment groups comingled within a cage, with every treatment group equally represented across cages. Mortality was the primary variable. Mortality data was analyzed using a generalized mixed model with fixed effect of treatment and random effect of block. Survival time was also analyzed using the SAS PHREG (survival analysis) procedure to examine whether there were significant differences between treatment groups and the control group. Numerous compounds of the invention and M9 (positive control) were tested in this model at a dose of 20 mg/kg (Table 3). Typical percent survival for no treatment control is in the range of 0-20% based on study to study variation in challenge inoculum and rate of infection. […] Mouse survival for M9 was about 90-100%, further supporting its residual antibacterial properties against the bacterial strain. Harmonized survival accounts for % survival relative to vehicle (“−” control) and M9 (“+” control)) survival data (Table 3).

TNF-α = assay: Whole blood assay, LPS stimulation, MSD cytokine detection; assay type: cell-based; details: Bos taurus, fresh whole bovine blood
IL-6 = assay: as above; assay type: cell-based; details: Bos taurus, fresh whole bovine blood
[2] = test system: Lung bacteria isolated at necropsy; assay: MIC of recovered isolates, natural bovine respiratory disease study
Description: The primary clinical endpoint for efficacy was treatment failure/success over a 14-day observation period. Clinically normal beef calves (150-200 kg) at moderate risk for BRD were dosed on arrival to the feedlot. Animals (N=114/group) received saline (T01), 5 mg/kg M9 (T02) or 10 mg/kg M9 (T03); or Zactran (T04). […] Bacterial isolates were collected at necropsy and MICs were evaluated (Table 4).

[3] = H. somni (25) lung isolates at necropsy
[4] = M. haemolytica (116) lung isolates at necropsy
[5] = P. multocida (33) lung isolates at necropsy

Compound | IL-1ß OS of LPS (IL-1β) [µM] | % Survival (P. multocida 46572) [%] | IC50 (TNF-α) [µM] | IC50 (IL-6) [µM] | other results
CCCNC[C@]1(O)[C@H](C)O[C@@H](O[C@H]2[C@H](C)[C@@H](O[C@@H]3O[C@H](C)C[C@H](N(C)C(=O)N4CCN(CC)CC4)[C@H]3Oc3ccc(OC)c(OCC)c3)[C@](C)(O)C[C@@H](C)CN[C@H](C)[C@@H](O)[C@](C)(O)[C@@H](CC)OC(=O)[C@@H]2C)C[C@@]1(C)OC [Example G-3] |  |  |  |  | Comparative MIC (P. multocida; P. multocida 43137): >64 µg/mL; Comparative MIC (P. multocida; P. multocida 46572, murine efficacy challenge strain): >64 µg/mL; Comparative MIC (M. haemolytica; M. haemolytica 12726): >64 µg/mL; Comparative MIC (M. haemolytica; M. haemolytica 33396): >64 µg/mL; Comparative MIC (M. haemolytica; M. haemolytica 46571, bovine efficacy challenge strain): >64 µg/mL; Comparative MIC (S. aureus (29213 ATCC)): >64 µg/mL
CCCNC[C@]1(O)[C@H](C)O[C@@H](O[C@H]2[C@H](C)[C@@H](O[C@@H]3O[C@H](C)C[C@H](NC)[C@H]3Oc3ccc(OC)cc3)[C@](C)(O)C[C@@H](C)CN[C@H](C)[C@@H](O)[C@](C)(O)[C@@H](CC)OC(=O)[C@@H]2C)C[C@@]1(C)OC [Example E-2, (2R,3S,4R,5R,8R,10R,11R,12S,13S,14R)-2-ethyl-3,4,10-trihydroxy-13-(((2R,4R,5S,6S)-5-hydroxy-4-methoxy-4,6-dimethyl-5-((propylamino)methyl)tetrahydro-2H-pyran-2-yl)oxy)-11-(((2S,3R,4S,6R)-3-(4-methoxyphenoxy)-6-methyl-4-(methylamino)tetrahydro-2H-pyran-2-yl)oxy)-3,5,8,10,12,14-hexamethyl-1-oxa-6-azacyclopentadecan-15-one] | 32 | 36 | 6 |  | MIC flag at the example number (Table E) [1]: E-2* (MIC ≤ 64 μg/mL for at least one BRD strain)
CCCNC[C@]1(O)[C@H](C)O[C@@H](O[C@H]2[C@H](C)[C@@H](O[C@@H]3O[C@H](C)C[C@H](NC)[C@H]3Oc3ccc(Cl)nc3)[C@](C)(O)C[C@@H](C)CN[C@H](C)[C@@H](O)[C@](C)(O)[C@@H](CC)OC(=O)[C@@H]2C)C[C@@]1(C)OC [Example E-8, (2R,3S,4R,5R,8R,10R,11R,12S,13S,14R)-11-(((2S,3R,4S,6R)-3-((6-chloropyridin-3-yl)oxy)-6-methyl-4-(methylamino)tetrahydro-2H-pyran-2-yl)oxy)-2-ethyl-3,4,10-trihydroxy-13-(((2R,4R,5S,6S)-5-hydroxy-4-methoxy-4,6-dimethyl-5-((propylamino)methyl)tetrahydro-2H-pyran-2-yl)oxy)-3,5,8,10,12,14-hexamethyl-1-oxa-6-azacyclopentadecan-15-one] | 100 | 36 | 25 | 110 | 
CC[C@H]1OC(=O)[C@H](C)[C@@H](O[C@H]2C[C@@](C)(OC)[C@@H](O)[C@H](C)O2)[C@H](C)[C@@H](O[C@@H]2O[C@H](C)C[C@H](NC)[C@H]2Oc2ccccc2)[C@](C)(O)C[C@@H](C)CN(C)[C@H](C)[C@@H](O)[C@]1(C)O [Example A-26, (2R,3S,4R,5R,8R,10R,11R,12S,13S,14R)-2-ethyl-3,4,10-trihydroxy-13-(((2R,4R,5S,6S)-5-hydroxy-4-methoxy-4,6-dimethyltetrahydro-2H-pyran-2-yl)oxy)-3,5,6,8,10,12,14-heptamethyl-11-(((2S,3R,4S,6R)-6-methyl-4-(methylamino)-3-phenoxytetrahydro-2H-pyran-2-yl)oxy)-1-oxa-6-azacyclopentadecan-15-one] | 16 | 1 | 20 |  | 
CC[C@H]1OC(=O)[C@H](C)[C@@H](O)[C@H](C)[C@@H](O[C@@H]2O[C@H](C)C[C@H](N(C)C(=O)N(C)c3ccccc3)[C@H]2Oc2ccc(OC)cc2)[C@](C)(O)C[C@@H](C)CN[C@H](C)[C@@H](O)[C@]1(C)O [Example C-1, 1-((2S,3R,4S,6R)-2-(((2R,3S,4R,5R,8R,10R,11R,12S,13S,14R)-2-ethyl-3,4,10,13-tetrahydroxy-3,5,8,10,12,14-hexamethyl-15-oxo-1-oxa-6-azacyclopentadecan-11-yl)oxy)-3-(4-methoxyphenoxy)-6-methyltetrahydro-2H-pyran-4-yl)-1,3-dimethyl-3-phenylurea] | 16 | 33 | 8 | 19 | 
CCCNC[C@]1(O)[C@H](C)O[C@@H](O[C@H]2[C@H](C)[C@@H](O[C@@H]3O[C@H](C)C[C@H](NC)[C@H]3Oc3ccc(C#N)cc3)[C@](C)(O)C[C@@H](C)CN[C@H](C)[C@@H](O)[C@](C)(O)[C@@H](CC)OC(=O)[C@@H]2C)C[C@@]1(C)OC [Example E-111, 4-(((2S,3R,4S,6R)-2-(((2R,3S,4R,5R,8R,10R,11R,12S,13S,14R)-2-ethyl-3,4,10-trihydroxy-13-(((2R,4R,5S,6S)-5-hydroxy-4-methoxy-4,6-dimethyl-5-((propylamino)methyl)tetrahydro-2H-pyran-2-yl)oxy)-3,5,8,10,12,14-hexamethyl-15-oxo-1-oxa-6-azacyclopentadecan-11-yl)oxy)-6-methyl-4-(methylamino)tetrahydro-2H-pyran-3-yl)oxy)benzonitrile] | 80 | 22 | 9 | 90 | 
CCCN1C[C@H](C)[C@@H](O)[C@](C)(O)[C@@H](CC)OC(=O)[C@H](C)[C@@H](O[C@H]2C[C@@](C)(OC)[C@@H](O)[C@H](C)O2)[C@H](C)[C@@H](O[C@@H]2O[C@H](C)C[C@H](N(C)C)[C@H]2O)[C@](C)(O)C[C@H]1C [gamithromycin (Zactran)] |  |  |  |  | MIC50 [2, 3]: 0.25 µg/mL; MIC90 [2, 3]: 2 µg/mL; MIC50 [2, 4]: 1 µg/mL; MIC90 [2, 4]: >64 µg/mL; MIC50 [2, 5]: 1 µg/mL; MIC90 [2, 5]: >64 µg/mL
CC[C@H]1OC(=O)[C@H](C)[C@@H](O)[C@H](C)[C@@H](O[C@@H]2O[C@H](C)C[C@H](NC)[C@H]2Oc2ccc(F)cc2)[C@](C)(O)C[C@@H](C)CN[C@H](C)[C@@H](O)[C@]1(C)O [Example B-4, (2R,3S,4R,5R,8R,10R,11R,12S,13S,14R)-2-ethyl-11-(((2S,3R,4S,6R)-3-(4-fluorophenoxy)-6-methyl-4-(methylamino)tetrahydro-2H-pyran-2-yl)oxy)-3,4,10,13-tetrahydroxy-3,5,8,10,12,14-hexamethyl-1-oxa-6-azacyclopentadecan-15-one] | 100 | 0 | 50 | 50 | clinical efficacy, P. multocida infection in mice (P. multocida 46572; mouse, in vivo): clinically efficacious
CC[C@H]1OC(=O)[C@H](C)[C@@H](O)[C@H](C)[C@@H](O[C@@H]2O[C@H](C)C[C@H](N(C)C(=O)N(C)c3ccccc3)[C@H]2Oc2ccccc2)[C@](C)(O)C[C@@H](C)CN[C@H](C)[C@@H](O)[C@]1(C)O [Example C-2, 1-((2S,3R,4S,6R)-2-(((2R,3S,4R,5R,8R,10R,11R,12S, 13S, 14R)-2-ethyl-3,4,10,13-tetrahydroxy-3,5,8,10,12,14-hexamethyl-15-oxo-1-oxa-6-azacyclopentadecan-11-yl)oxy)-6-methyl-3-phenoxytetrahydro-2H-pyran-4-yl)-1,3-dimethyl-3-phenylurea] | 16 | 54 | 27 | 32 | 
CCCNC[C@]1(O)[C@H](C)O[C@@H](O[C@H]2[C@H](C)[C@@H](O[C@@H]3O[C@H](C)C[C@H](NC)[C@H]3Oc3ccc(F)cc3)[C@](C)(O)C[C@@H](C)CN[C@H](C)[C@@H](O)[C@](C)(O)[C@@H](CC)OC(=O)[C@@H]2C)C[C@@]1(C)OC [Example E-1, (2R,3S,4R,5R,8R,10R,11R,12S,13S,14R)-2-ethyl-11-(((2S,3R,4S,6R)-3-(4-fluorophenoxy)-6-methyl-4-(methylamino)tetrahydro-2H-pyran-2-yl)oxy)-3,4,10-trihydroxy-13-(((2R,4R,5S,6S)-5-hydroxy-4-methoxy-4,6-dimethyl-5-((propylamino)methyl)tetrahydro-2H-pyran-2-yl)oxy)-3,5,8,10,12,14-hexamethyl-1-oxa-6-azacyclopentadecan-15-one] | 32 | 57 | 6 |  | MIC flag at the example number (Table E) [1]: E-1* (MIC ≤ 64 μg/mL for at least one BRD strain)
